Patent US20110045101A1, “FUNGICIDAL SUBSTITUTED AZOLES” (E.I. Du Pont De Nemours and Company, priority 2009, published 2011)
Marks after values point to notes of the source that are not given here.

Columns and labels:
Assay type in all cases: in vivo
[1] = system: Botrytis cinerea; assay: Test C: tomato Botrytis on tomato seedlings, sprayed the day before inoculation, visual disease rating; settings: 100 = 100% disease control; for pest or weed control at 200 ppm: Botrytis cinerea, 120 h
In short: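 Tomato seedlings sprayed to run-off with compound suspended in acetone/water with 250 ppm Trem 014 surfactant, at 200 ppm (≈500 g/ha) or 40 ppm where marked, one day before Botrytis cinerea inoculation. Disease rated visually.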

[2] = system: Alternaria solani; assay: Test D: tomato early blight, sprayed the day before inoculation, visual disease rating; settings: 100 = 100% disease control; for pest or weed control at 200 ppm: Alternaria solani, 168 h
In short: (§1)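 Compounds were dissolved in acetone (3% of final volume), then suspended in 50/50 acetone/water with 250 ppm Trem 014 surfactant and sprayed to run-off on test plants. A 200 ppm suspension equals 500 g/ha. Ratings are at 200 ppm unless flagged as 40 ppm.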

[3] = system: Septoria nodorum; assay: Test F: wheat glume blotch on wheat seedlings, sprayed the day before inoculation, visual disease rating; settings: 100 = 100% disease control; for pest or weed control at 200 ppm: Parastagonospora nodorum, 264 h
In short: as §1

[4] = system: Septoria tritici; assay: Test G: wheat leaf blotch on wheat seedlings, sprayed the day before inoculation, visual disease rating; settings: 100 = 100% disease control; for pest or weed control at 200 ppm: Zymoseptoria tritici, 504 h
In short: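 Wheat seedlings were sprayed to run-off with test suspension (acetone/water plus surfactant), generally 200 ppm (≈500 g/ha), or 40 ppm where marked. Septoria tritici spores were inoculated the next day; plants were held 48 h at 24°C in saturated atmosphere, then 19 days at 20°C before visual disease rating.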

[5] = system: Puccinia recondita f. sp. tritici; assay: Test H: wheat leaf rust, test suspension sprayed after inoculation of wheat seedlings, visual disease rating; settings: 100 = 100% disease control; for pest or weed control at 200 ppm: Puccinia recondita, 96 h
In short: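 Wheat seedlings inoculated with P. recondita spores, held 24 h saturated at 20 °C, then 2 days in growth chamber at 20 °C; compound suspension (acetone/water with Trem 014) sprayed to run-off afterwards. Rated visually; 200 ppm (≈500 g/ha) unless marked *, which denotes 40 ppm.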

[6] = system: Puccinia recondita f. sp. tritici; assay: Test I: wheat leaf rust on wheat seedlings, sprayed the day before inoculation, visual disease rating; settings: 100 = 100% disease control; for pest or weed control at 200 ppm: Puccinia recondita, 168 h
In short: as §1

[7] = system: Erysiphe graminis f. sp. tritici; assay: Test J: wheat powdery mildew on wheat seedlings, sprayed the day before inoculation, visual disease rating; settings: 100 = 100% disease control; for pest or weed control at 200 ppm: Blumeria graminis, 168 h
In short: as §1

[8] = 200 ppm, 0 = no control relative to controls
[9] = 40 ppm (marked *), 0 = no control

| Compound | Test C disease control rating [1, 8] [%] | Test D disease control rating [2, 8] [%] | Test F disease control rating [3, 8] [%] | Test G disease control rating [4, 8] [%] | Test H disease control rating [5, 8] [%] | Test I disease control rating [6, 8] [%] | Test J disease control rating [7, 8] [%] | also measured |
| --- | --- | --- | --- | --- | --- | --- | --- | --- |
| Cc1nc(Br)c(-c2c(F)cccc2F)n1-c1ccc2c(c1)OCCO2 [compound 602] | – | – | – | – | – | – | – | Test C disease control rating ([1]; 40 ppm (marked *)): 99* %; Test D disease control rating ([2]; 40 ppm (marked *)): 91* %; Test F disease control rating ([3]; 40 ppm (marked *)): 0* %; Test G disease control rating ([4]; 40 ppm (marked *)): 99* %; Test H disease control rating ([5]; 40 ppm (marked *)): 0* %; Test I disease control rating ([6]; 40 ppm (marked *)): 98* %; Test J disease control rating ([7]; 40 ppm (marked *)): 81* % |
| Cc1nc(Br)c(Cc2c(F)cc(F)cc2F)n1-c1cc(Cl)cc(Cl)c1 [compound 541] | 0 | 0 | 0 | 0 | 0 | 0 | 0 | – |
| COc1cc(F)c(-c2c(Cl)nc(Cl)n2-c2cncc(Br)c2)c(F)c1 [compound 678] | 100 | 100 | 100 | 99 | 100 | 100 | 100 | – |
| Cc1ccc(-n2c(Cl)nc(Cl)c2-c2c(F)ccc(C#N)c2F)cc1 [compound 680] | 99 | 100 | 98 | 100 | 0 | 100 | 100 | – |
| Cc1nc(Cl)c(-c2c(F)ccc(F)c2F)n1Cc1ccc(Cl)cc1 [compound 293] | – | – | – | – | – | – | – | Test C disease control rating ([1]; 200 ppm, 0 = no control): 99%; Test D disease control rating ([2]; 200 ppm, 0 = no control): 91%; Test F disease control rating ([3]; 200 ppm, 0 = no control): 0%; Test G disease control rating ([4]; 200 ppm, 0 = no control): 95%; Test H disease control rating ([5]; 200 ppm, 0 = no control): 6%; Test I disease control rating ([6]; 200 ppm, 0 = no control): 99%; Test J disease control rating ([7]; 200 ppm, 0 = no control): 100% |
| COc1cc(F)c(-c2c(Cl)nc(Cl)n2Cc2ccc(Cl)cc2)c(F)c1 [compound 284] | – | – | – | – | – | – | – | Test C disease control rating ([1]; 200 ppm, 0 = no control): 100%; Test D disease control rating ([2]; 200 ppm, 0 = no control): 99%; Test F disease control rating ([3]; 200 ppm, 0 = no control): 92%; Test G disease control rating ([4]; 200 ppm, 0 = no control): 95%; Test H disease control rating ([5]; 200 ppm, 0 = no control): 6%; Test I disease control rating ([6]; 200 ppm, 0 = no control): 99%; Test J disease control rating ([7]; 200 ppm, 0 = no control): 100% |
| Fc1cccc(-n2cnc(Cl)c2-c2c(F)ccc(Br)c2F)c1 [compound 623] | 98 | 33 | 0 | 97 | 0 | 98 | 100 | – |
| CCOc1ccc(F)c(-c2c(Cl)nc(Br)n2-c2ccc(Cl)cc2)c1F [compound 662] | 100 | 99 | 100 | 99 | 0 | 98 | 100 | – |
| N#Cc1ccc(F)c(-c2c(Cl)nc(Cl)n2-c2cccc(F)c2)c1F [compound 681] | 99 | 100 | 98 | 99 | 0 | 99 | 100 | – |
| COc1cc(F)c(-c2c(Cl)nc(C)n2-c2ccc(C(F)(F)F)nc2)c(F)c1 [Compound 713, 5-[4-chloro-5-(2,6-difluoro-4-methoxyphenyl)-2-methyl-1H-imidazol-1-yl]-2-(trifluoromethyl)pyridine] | – | – | – | – | – | – | – | pest or weed control at 200 ppm [1, 8]: 100%; pest or weed control at 200 ppm [2, 8]: 100%; pest or weed control at 200 ppm [3, 8]: 100%; pest or weed control at 200 ppm [4, 8]: 100%; pest or weed control at 200 ppm [5, 8]: 78%; pest or weed control at 200 ppm [6, 8]: 100%; pest or weed control at 200 ppm [7, 8]: 100% |
| COc1cc(F)c(-c2c(N(C)C)ncn2Cc2ccc(Cl)cc2)c(F)c1 [compound 269] | – | – | – | – | – | – | – | Test C disease control rating ([1]; 200 ppm, 0 = no control): 100%; Test D disease control rating ([2]; 200 ppm, 0 = no control): 0%; Test F disease control rating ([3]; 200 ppm, 0 = no control): 87%; Test G disease control rating ([4]; 200 ppm, 0 = no control): 83%; Test H disease control rating ([5]; 200 ppm, 0 = no control): 9%; Test I disease control rating ([6]; 200 ppm, 0 = no control): 9%; Test J disease control rating ([7]; 200 ppm, 0 = no control): 0% |
| COc1cc(F)c(-c2c(Br)nc(Cl)n2-c2ccc(OC)nc2)c(F)c1 [compound 710] | 100 | 100 | 100 | 98 | 99 | 100 | 98 | – |
| Cc1nc(Cl)c(-c2c(F)cc(F)cc2F)n1-c1cccc(OC(F)F)c1 [compound 609] | 99 | 100 | 100 | 99 | 100 | 100 | 100 | – |
| COc1cc(F)c(-c2c(Cl)nc(Cl)n2-c2ccc(C)nc2)c(F)c1 [compound 553] | 100 | 100 | 100 | 99 | 100 | 100 | 100 | – |
| CCc1nc(C)n(-c2ccc(Cl)cc2)c1-c1c(F)cccc1F [compound 305] | – | – | – | – | – | – | – | Test C disease control rating [1, 9]: 63* %; Test D disease control rating [2, 9]: 0* %; Test F disease control rating [3, 9]: 0* %; Test G disease control rating [4, 9]: 23* %; Test H disease control rating [5, 9]: 11* %; Test I disease control rating [6, 9]: 0* %; Test J disease control rating [7, 9]: 0* % |
| COc1cc(F)c(-c2c(Cl)nc(CO)n2-c2ccc(F)cc2)c(F)c1 [Compound 298, 4-chloro-5-(2,6-difluoro-4-methoxyphenyl)-1-(4-fluorophenyl)-1H-imidazole-2-methanol] | – | – | – | – | – | – | – | pest or weed control at 200 ppm [1, 8]: 100%; pest or weed control at 200 ppm [2, 8]: 100%; pest or weed control at 200 ppm [3, 8]: 0%; pest or weed control at 200 ppm [4, 8]: 96%; pest or weed control at 200 ppm [5, 8]: 0%; pest or weed control at 200 ppm [6, 8]: 98%; pest or weed control at 200 ppm [7, 8]: 0% |
| Fc1ccc(F)c(-c2c(Cl)nc(Br)n2Cc2ccc(Cl)cc2)c1F [compound 286] | – | – | – | – | – | – | – | Test C disease control rating ([1]; 200 ppm, 0 = no control): 99%; Test D disease control rating ([2]; 200 ppm, 0 = no control): 96%; Test F disease control rating ([3]; 200 ppm, 0 = no control): 79%; Test G disease control rating ([4]; 200 ppm, 0 = no control): 95%; Test H disease control rating ([5]; 200 ppm, 0 = no control): 64%; Test I disease control rating ([6]; 200 ppm, 0 = no control): 99%; Test J disease control rating ([7]; 200 ppm, 0 = no control): 100% |
| Cc1nc(Br)n(-c2ccc(F)cc2Cl)c1-c1ccc(Cl)c(F)c1 [compound 325] | 94 | 91 | 51 | 96 | 0 | 97 | 99 | – |
